These results are taken from PMC3242765, “Inhibitors of Alphavirus Entry and Replication Identified with a Stable Chikungunya Replicon Cell Line and Virus-Based Assays” (PLoS ONE, 2011).

Where a name gives a salt, the structure may show the parent alone.

The test system of one assay is CHIKV replicon. Briefly: microbe, parasite or virus in culture. It counts as cell-based, Chikungunya virus (CHIKV).

Take `CN(C)CCOC(c1ccccc1)c1ccccc1` [Diphenhydramine hydrochloride]: in the assay with SFV-Rluc, the “SFV replication % left (surviving fraction, remaining percentage of SFV replication)” value is 41.0%. For the same compound, in the assay on CHIKV replicon, the “CHIKV replicon % left” value amounted to 194.3%.
Taken in the same sequence, the figures for `CC(C)NCC(O)c1ccc2ccccc2c1` (stereo not shown) [Pronethalol] were 62.9% and 29.9%.
In the same order, the values of `COc1ccccc1-c1cc(=O)c2ccc3ccccc3c2o1` [2'-Methoxy-a-naphthoflavone] are 45.8% and 81.0%.
On to `CC(C)(C)NCC(O)COc1cccc2c1CC(O)C(O)C2` (stereo not shown) [Nadolol], for which, in the assay on SFV-Rluc, the “SFV replication % left (surviving fraction, remaining percentage of SFV replication)” value was 60.5%. Also, in the assay on CHIKV replicon, the “CHIKV replicon % left” value is 63.3%.
`O=C(O)c1ccc(O)c(O)c1` [3,4-Dihydroxybenzoic acid]: in the assay with SFV-Rluc, the “SFV replication % left (surviving fraction, remaining percentage of SFV replication)” value is 124.5%. The “CHIKV replicon % left” value in the assay with CHIKV replicon came to 101.6%.
In the case of `O=C1CN(/N=C/c2ccc([N+](=O)[O-])o2)C(=O)N1` [Nitrofurantoin], the “SFV replication % left (surviving fraction, remaining percentage of SFV replication)” value in the assay on SFV-Rluc came to 58.9%. Also, the “CHIKV replicon % left” value with CHIKV replicon is 60.9%.
Taken in the same sequence, the figures for `O=C(O)Cc1ccccc1O` [2-Hydroxyphenylacetic acid] were 7.3% and 14.3%.
In the same order, the values of `CC(=O)NS(=O)(=O)c1ccc(NC(=O)c2ccccc2C(=O)O)cc1` [Phthalylsulfacetamide] are 110.6% and 85.4%.
In the same order, the values of `O=c1c(O)c(-c2ccc(O)cc2)oc2cc(O)cc(O)c12` [Kaempferol] are 2.9% and 11.5%.
For `Oc1cc(O)c2c(c1)O[C@H](c1ccc(O)c(O)c1)[C@H](O)[C@H]2c1c(O)cc(O)c2c1O[C@H](c1ccc(O)c(O)c1)[C@H](O)C2` [Procyanidin B2], the “SFV replication % left (surviving fraction, remaining percentage of SFV replication)” value in the assay on SFV-Rluc was 93.7%. In the assay on CHIKV replicon, the “CHIKV replicon % left” value worked out at 101.9%.
`C[C@]12CC[C@H](O)C[C@H]1CC[C@@H]1[C@@H]2CC[C@]2(C)[C@@H](C3=CC(=O)OC3)[C@@H](O)C[C@]12O` [Gitoxigenin]: in the assay on SFV-Rluc, the “SFV replication % left (surviving fraction, remaining percentage of SFV replication)” value turned out to be 102.7%. In the assay on CHIKV replicon, the “CHIKV replicon % left” value is listed as 81.4%.
Consider `Cc1noc(NS(=O)(=O)c2ccc(N)cc2)c1C` [Sulfisoxazole], for which the “SFV replication % left (surviving fraction, remaining percentage of SFV replication)” value in the assay on SFV-Rluc came out at 91.4%. In the assay with CHIKV replicon, the “CHIKV replicon % left” value is on record as 104.5%.
In the same order, the values of `COc1ccc2ccc(=O)oc2c1O` [Daphnetin-7-methylether] are 105.6% and 89.9%.
Taken in the same sequence, the figures for `O=c1c(O)c(-c2ccc(O)c(O)c2)oc2cc(O)c(O)c(O)c12` [Quercetagetin] were 90.2% and 85.2%.
In the same order, the values of `O=C(O)c1ccc(O)cc1O` [2,4-Dihydroxylbenzoic acid] are 32.1% and 29.5%.
For the compound `CCN(CC)CCNC(=O)c1ccc(N)cc1` [Procainamide hydrochloride], in the assay with SFV-Rluc, the “SFV replication % left (surviving fraction, remaining percentage of SFV replication)” value is recorded as 89.0%. The “CHIKV replicon % left” value in the assay with CHIKV replicon came to 100.4%.
In the same order, the values of `CCNCC(O)c1ccc(O)cc1` (stereo not shown) [1-(4-Oxyphenyl)-1-oxy-2-ethylamonoethane] are 86.9% and 105.4%.
`CCN(CC)C(=O)c1ccc(O)c(OC)c1` [Ethamivan]: the “SFV replication % left (surviving fraction, remaining percentage of SFV replication)” value in the assay with SFV-Rluc amounted to 85.5%. Besides, in the assay with CHIKV replicon, the “CHIKV replicon % left” value is given as 43.1%.
Turning to `COc1cc(/C=C/C(=O)O)ccc1O` [Ferulic acid], the “SFV replication % left (surviving fraction, remaining percentage of SFV replication)” value in the assay with SFV-Rluc is reported as 63.4%. For the same compound, the “CHIKV replicon % left” value in the assay with CHIKV replicon is 55.8%.
Regarding `N[C@@H]1C[C@H]1c1ccccc1.N[C@H]1C[C@@H]1c1ccccc1.O=S(=O)(O)O` [Tranylcypromine sulfate], the “SFV replication % left (surviving fraction, remaining percentage of SFV replication)” value in the assay with SFV-Rluc turned out to be 94.8%. For the same compound, in the assay on CHIKV replicon, the “CHIKV replicon % left” value is reported as 94.4%.
In the same order, the values of `COc1cc2ccc(=O)oc2c(O)c1O` [Fraxetin] are 103.6% and 95.4%.
In the same order, the values of `CN(C)CCC=C1c2ccccc2COc2ccccc21` [Doxepin hydrochloride] are 21.6% and 87.2%.
In the same order, the values of `CCCCNC(=O)NS(=O)(=O)c1ccc(C)cc1` [Tolbutamide] are 80.2% and 100.9%.
As to `CC12CCC(CC1=O)C2(C)C` (racemic) [DL-Camphon, Campher (synth.)], the “SFV replication % left (surviving fraction, remaining percentage of SFV replication)” value in the assay with SFV-Rluc was 83.9%. Besides, in the assay on CHIKV replicon, the “CHIKV replicon % left” value amounted to 105.4%.
On to Benzalkonium chloride, for which the “SFV replication % left (surviving fraction, remaining percentage of SFV replication)” value with SFV-Rluc is on record as 0.0294%. For the same compound, in the assay with CHIKV replicon, the “CHIKV replicon % left” value is on record as -0.5%.
In the same order, the values of `O=c1oc2cc(O)ccc2cc1-c1nc2ccccc2o1` [3-(2-Benzoxazolyl)umbelliferone] are 21.0% and 61.8%.
In the case of (-)-Epicatechin gallate, the “SFV replication % left (surviving fraction, remaining percentage of SFV replication)” value in the assay on SFV-Rluc was 94.8%. Moreover, in the assay on CHIKV replicon, the “CHIKV replicon % left” value stood at 100.5%.
`O=C(O)c1cc(-c2ccccc2)nc2ccccc12` [Cinchophen]: in the assay on SFV-Rluc, the “SFV replication % left (surviving fraction, remaining percentage of SFV replication)” value stood at 65.1%. Moreover, the “CHIKV replicon % left” value in the assay with CHIKV replicon is recorded as 51.2%.
In the same order, the values of `O.O.O=c1c(O)c(-c2ccc(O)cc2O)oc2cc(O)cc(O)c12` [Morin dihydrate] are 82.9% and 102.6%.
Taken in the same sequence, the figures for `O=C(/C=C/c1ccc(O)c(O)c1)O[C@H](Cc1ccc(O)c(O)c1)C(=O)O` [Rosmarinic acid] were 120.3% and 98.8%.
Turning to `C[C@H](N)[C@H](O)c1cccc(O)c1.O=C(O)C(O)C(O)C(=O)O` [Metaraminol bitartrate salt], the “SFV replication % left (surviving fraction, remaining percentage of SFV replication)” value in the assay on SFV-Rluc stood at 96.5%. The “CHIKV replicon % left” value with CHIKV replicon is given as 69.1%.
In the same order, the values of `O=C(O)c1cc(O)ccc1O` [2,5-Dihydroxybenzoic acid] are 127.8% and 83.7%.
In the same order, the values of `Oc1ccc(/C=C/c2cc(O)cc(O)c2)cc1` [Resveratrol] are 103.4% and 79.8%.
In the same order, the values of `CC(C)(C)NCC(O)COc1cccc2c1CCC(=O)N2` (stereo not shown) [Carteolol hydrochloride] are 67.2% and 78.1%.
Turning to `NC(=O)c1cccnc1` [Nicotinamide], the “SFV replication % left (surviving fraction, remaining percentage of SFV replication)” value with SFV-Rluc is 116.9%. Moreover, the “CHIKV replicon % left” value in the assay on CHIKV replicon was found to be 99.1%.
